The values that follow come from article PMC6120666 (The EMBO Journal, 2018).

The test system of one assay is THP1Blue cells, NOD1. Put plainly: THP1Blue NF-κB-SEAP reporter assay, TriDAP (NOD1). Type of assay: cell-based. The conditions noted are these: Homo sapiens; TriDAP 10 μg/ml; read-out: THP1-Blue NF-κB Inhibition IC50 (TriDAP).
For assay [1], the target named is T1, proteins of U2OS cell lysate (Homo sapiens, UniProt P52907).
T1 construct: Proteins enriched by c-ponatinib from U2OS cell lysate; endogenous in cells; host or cells: U2OS cell lysate
Put plainly: Drug affinity chromatography with c-ponatinib and LC-MS/MS (ponatinib interactome). The assay is classed as binding. In outline:
(§1)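 Proteins were identified by nano-UPLC–MS/MS after elution with formic acid and trypsin digestion. They were captured from U2OS lysate (2 mg protein per pulldown, NP-40 buffer) on amine-coupled NHS beads during a 2 h incubation at 4 °C.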

The target of assay [2] is T2, proteins of U2OS cell lysate (Homo sapiens, UniProt P60900).
T2 construct: Proteins enriched by c-ponatinib from U2OS cell lysate; endogenous in cells; host or cells: U2OS cell lysate
Described as above. Type of assay: binding. In outline: as §1

The target in assay [3] is T3, proteins of U2OS cell lysate (Homo sapiens, UniProt Q9BQE3).
T3 construct: Proteins enriched by c-ponatinib from U2OS cell lysate; endogenous in cells; host or cells: U2OS cell lysate
The assay is described as above. The assay is classed as binding. In outline: as §1

Assay [4] has as its target T4, proteins of U2OS cell lysate (Homo sapiens, UniProt P10515).
T4 construct: Proteins enriched by c-ponatinib from U2OS cell lysate; endogenous in cells; host or cells: U2OS cell lysate
Described as above. Type of assay: binding. The gist of the method:
as §1

Assay [5] has as its target T5, proteins of U2OS cell lysate (Homo sapiens, UniProt P04406).
T5 construct: Proteins enriched by c-ponatinib from U2OS cell lysate; endogenous in cells; host or cells: U2OS cell lysate
The description is as above. The assay is classed as binding. The gist of the method:
as §1

Assay [6] concerns the target T6, proteins of U2OS cell lysate (Homo sapiens, UniProt P28072).
T6 construct: Proteins enriched by c-ponatinib from U2OS cell lysate; endogenous in cells; host or cells: U2OS cell lysate
The description is as above. The assay is classed as binding. In outline:
as §1

Assay [7] concerns the target T7, proteins of U2OS cell lysate (Homo sapiens, UniProt Q12874).
T7 construct: Proteins enriched by c-ponatinib from U2OS cell lysate; endogenous in cells; host or cells: U2OS cell lysate
The assay is described as above. Type of assay: binding. In outline: as §1

Assay [8] concerns the target T8, proteins of U2OS cell lysate (Homo sapiens, UniProt O15372).
T8 construct: Proteins enriched by c-ponatinib from U2OS cell lysate; endogenous in cells; host or cells: U2OS cell lysate
The assay is described as above. The assay is classed as binding. The gist of the method: as §1

Assay [9] concerns the target T9, proteins of U2OS cell lysate (Homo sapiens, UniProt Q15393).
T9 construct: Proteins enriched by c-ponatinib from U2OS cell lysate; endogenous in cells; host or cells: U2OS cell lysate
The description is as above. Type of assay: binding. In outline: as §1

T6 sequence (P28072 whole entry): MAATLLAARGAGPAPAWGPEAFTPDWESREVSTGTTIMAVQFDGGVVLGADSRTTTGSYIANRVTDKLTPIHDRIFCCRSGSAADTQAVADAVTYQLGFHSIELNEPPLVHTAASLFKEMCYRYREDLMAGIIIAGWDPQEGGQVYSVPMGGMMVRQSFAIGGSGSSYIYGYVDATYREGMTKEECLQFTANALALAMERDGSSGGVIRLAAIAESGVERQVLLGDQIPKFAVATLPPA
T8 sequence (O15372 whole entry): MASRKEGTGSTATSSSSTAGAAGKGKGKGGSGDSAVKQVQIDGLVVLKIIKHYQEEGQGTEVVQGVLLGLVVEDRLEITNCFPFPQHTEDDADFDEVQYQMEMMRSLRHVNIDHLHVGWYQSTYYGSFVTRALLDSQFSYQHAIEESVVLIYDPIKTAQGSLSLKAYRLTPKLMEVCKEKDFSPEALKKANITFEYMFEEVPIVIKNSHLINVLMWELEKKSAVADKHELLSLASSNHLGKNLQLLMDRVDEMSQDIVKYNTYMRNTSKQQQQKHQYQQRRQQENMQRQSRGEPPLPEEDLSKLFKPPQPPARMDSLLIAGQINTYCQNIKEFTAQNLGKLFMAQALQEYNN
T9 sequence (Q15393 whole entry): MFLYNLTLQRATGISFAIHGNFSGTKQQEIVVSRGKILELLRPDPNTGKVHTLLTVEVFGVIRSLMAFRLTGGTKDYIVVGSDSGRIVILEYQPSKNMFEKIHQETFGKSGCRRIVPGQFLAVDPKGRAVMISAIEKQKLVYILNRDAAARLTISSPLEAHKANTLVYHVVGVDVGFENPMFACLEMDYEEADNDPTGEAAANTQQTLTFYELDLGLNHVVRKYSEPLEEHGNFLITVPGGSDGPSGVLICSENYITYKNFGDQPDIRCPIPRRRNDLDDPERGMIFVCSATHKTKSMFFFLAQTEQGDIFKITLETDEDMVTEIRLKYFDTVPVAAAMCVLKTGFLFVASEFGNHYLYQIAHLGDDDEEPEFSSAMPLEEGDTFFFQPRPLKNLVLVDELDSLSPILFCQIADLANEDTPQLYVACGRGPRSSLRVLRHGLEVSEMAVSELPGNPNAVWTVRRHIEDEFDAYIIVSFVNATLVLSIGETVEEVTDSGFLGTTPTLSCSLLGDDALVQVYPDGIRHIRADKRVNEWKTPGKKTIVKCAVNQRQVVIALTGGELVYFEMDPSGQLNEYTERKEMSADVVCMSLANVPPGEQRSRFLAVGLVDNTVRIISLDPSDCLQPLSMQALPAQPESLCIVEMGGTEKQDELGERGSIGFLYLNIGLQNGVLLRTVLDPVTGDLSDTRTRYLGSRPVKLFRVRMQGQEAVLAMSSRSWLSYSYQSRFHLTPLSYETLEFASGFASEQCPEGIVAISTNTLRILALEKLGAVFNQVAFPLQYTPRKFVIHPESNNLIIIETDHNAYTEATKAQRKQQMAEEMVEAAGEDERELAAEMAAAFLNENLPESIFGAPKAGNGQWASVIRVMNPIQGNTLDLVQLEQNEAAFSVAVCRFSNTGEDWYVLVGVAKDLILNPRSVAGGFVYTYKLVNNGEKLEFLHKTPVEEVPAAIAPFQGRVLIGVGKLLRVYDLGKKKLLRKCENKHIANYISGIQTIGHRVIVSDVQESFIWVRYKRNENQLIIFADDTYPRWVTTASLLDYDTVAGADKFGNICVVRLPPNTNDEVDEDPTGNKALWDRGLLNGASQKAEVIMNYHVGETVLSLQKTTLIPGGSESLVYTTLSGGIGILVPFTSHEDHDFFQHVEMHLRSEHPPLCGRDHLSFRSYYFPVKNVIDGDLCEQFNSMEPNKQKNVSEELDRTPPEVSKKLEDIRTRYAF
T2 sequence (P60900 whole entry): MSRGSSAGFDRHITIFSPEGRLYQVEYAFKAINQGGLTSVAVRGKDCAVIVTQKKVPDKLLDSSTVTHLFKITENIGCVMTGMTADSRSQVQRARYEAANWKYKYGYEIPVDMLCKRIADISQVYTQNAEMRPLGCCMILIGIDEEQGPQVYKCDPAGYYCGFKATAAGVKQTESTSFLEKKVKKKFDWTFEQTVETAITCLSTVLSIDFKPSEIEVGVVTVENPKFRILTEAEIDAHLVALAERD
T3 sequence (Q9BQE3 whole entry): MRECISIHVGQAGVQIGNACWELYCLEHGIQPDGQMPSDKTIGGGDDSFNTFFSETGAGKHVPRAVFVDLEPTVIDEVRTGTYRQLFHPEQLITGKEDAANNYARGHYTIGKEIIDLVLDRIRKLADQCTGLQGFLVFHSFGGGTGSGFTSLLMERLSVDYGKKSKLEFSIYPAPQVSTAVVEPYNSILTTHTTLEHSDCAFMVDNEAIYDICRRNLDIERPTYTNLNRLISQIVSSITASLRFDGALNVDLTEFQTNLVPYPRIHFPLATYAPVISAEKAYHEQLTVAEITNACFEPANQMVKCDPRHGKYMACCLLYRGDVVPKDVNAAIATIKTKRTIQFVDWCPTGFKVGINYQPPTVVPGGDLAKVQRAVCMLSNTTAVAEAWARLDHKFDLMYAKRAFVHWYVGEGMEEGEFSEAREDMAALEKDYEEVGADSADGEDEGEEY
T7 sequence (Q12874 whole entry): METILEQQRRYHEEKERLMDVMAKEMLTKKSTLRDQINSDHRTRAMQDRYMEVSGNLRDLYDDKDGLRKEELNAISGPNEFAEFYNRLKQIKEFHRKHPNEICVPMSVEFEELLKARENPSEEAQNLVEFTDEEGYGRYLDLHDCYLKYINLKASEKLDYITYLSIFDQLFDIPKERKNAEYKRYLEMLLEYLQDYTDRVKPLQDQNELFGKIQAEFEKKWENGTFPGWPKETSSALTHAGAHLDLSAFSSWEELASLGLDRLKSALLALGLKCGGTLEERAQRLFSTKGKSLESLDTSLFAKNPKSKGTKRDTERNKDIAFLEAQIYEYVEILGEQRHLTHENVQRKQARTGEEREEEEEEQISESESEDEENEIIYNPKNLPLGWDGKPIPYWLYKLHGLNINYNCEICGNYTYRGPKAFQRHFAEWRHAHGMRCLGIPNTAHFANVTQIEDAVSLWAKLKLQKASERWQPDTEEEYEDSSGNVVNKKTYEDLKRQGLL
T4 sequence (P10515 87-647): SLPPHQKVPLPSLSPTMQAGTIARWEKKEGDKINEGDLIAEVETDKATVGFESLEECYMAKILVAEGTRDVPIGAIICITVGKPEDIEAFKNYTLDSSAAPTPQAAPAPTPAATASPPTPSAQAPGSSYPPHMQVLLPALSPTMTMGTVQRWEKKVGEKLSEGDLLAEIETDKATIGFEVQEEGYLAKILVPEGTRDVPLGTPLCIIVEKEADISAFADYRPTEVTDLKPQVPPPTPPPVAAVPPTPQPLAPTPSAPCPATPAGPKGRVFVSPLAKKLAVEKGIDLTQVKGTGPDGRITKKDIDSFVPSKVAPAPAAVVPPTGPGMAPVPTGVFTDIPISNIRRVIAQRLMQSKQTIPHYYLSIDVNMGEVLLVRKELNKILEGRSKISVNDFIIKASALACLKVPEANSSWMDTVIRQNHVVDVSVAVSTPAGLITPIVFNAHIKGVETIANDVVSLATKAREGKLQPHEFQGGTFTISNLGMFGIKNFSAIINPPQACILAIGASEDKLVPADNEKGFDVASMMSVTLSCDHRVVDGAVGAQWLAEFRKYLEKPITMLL
T5 sequence (P04406 whole entry): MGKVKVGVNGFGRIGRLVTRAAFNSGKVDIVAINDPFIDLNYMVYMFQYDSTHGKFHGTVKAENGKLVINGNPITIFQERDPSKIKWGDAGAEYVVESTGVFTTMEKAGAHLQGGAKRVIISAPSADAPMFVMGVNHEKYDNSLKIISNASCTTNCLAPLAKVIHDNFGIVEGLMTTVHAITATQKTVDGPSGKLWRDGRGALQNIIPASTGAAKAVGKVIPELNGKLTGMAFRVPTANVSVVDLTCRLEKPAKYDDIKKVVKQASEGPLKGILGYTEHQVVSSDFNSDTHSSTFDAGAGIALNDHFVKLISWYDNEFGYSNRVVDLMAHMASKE

As to `CCCS(=O)(=O)Nc1cc(-c2cc(-c3ccc(N4CCNCC4)cc3)cnc2N)cc(F)c1OC` [CSLP37], in the assay on THP1Blue cells, NOD1, the IC50 worked out at 0.0208 ± 0.0012 µM.
With `CCCS(=O)(=O)Nc1cc(-c2cc(-c3ccc(N4CCNCC4)cc3)cnc2N)cc(OC)c1OC` [CSLP43], the IC50 in the assay with THP1Blue cells, NOD1 was determined as 0.00143 ± 0.0001 µM.
For `Cc1ccc(C(=O)Nc2ccc(CN3CCN(C)CC3)c(C(F)(F)F)c2)cc1C#Cc1cnc2cccnn12` [PON], the “Average LFQ PON_WT” value came to 21.8548 in [1] (CAPZA1, F-actin-capping protein subunit alpha-1); 22.244 in assay [2] (PSMA6, Proteasome subunit alpha type-6); 21.711 in [3] (TUBA1C, Tubulin alpha-1C chain); 21.6984 in [4] (DLAT, Dihydrolipoyllysine-residue acetyltransferase component of pyruvate dehydrogenase complex, mitochondrial); 22.9925 in assay [5] (GAPDH, Glyceraldehyde-3-phosphate dehydrogenase); 22.7359 in assay [6] (PSMB6, Proteasome subunit beta type-6). Besides, the “Average LFQ PON_WT” value was determined as 21.5172 in assay [7] (SF3A3, Splicing factor 3A subunit 3); 23.1902 in [8] (EIF3H;EIF3S3, Eukaryotic translation initiation factor 3 subunit H); 22.7469 in assay [9] (SF3B3, Splicing factor 3B subunit 3).
For `Cc1ccc(C(=O)Nc2ccc(CN3CCN(CCCN)CC3)c(C(F)(F)F)c2)cc1C#Cc1cnc2cccnn12` [c-ponatinib, reference compound], the “Average LFQ intensity” value in assay [1] (captured protein CAPZA1, Rank 200) is recorded as 21.8548; in assay [2] (captured protein PSMA6, Rank 175), 22.244; in assay [3] (captured protein TUBA1C, Rank 213) it was 21.711; in assay [4] (captured protein DLAT, Rank 215), 21.6984; in [5] (captured protein GAPDH, Rank 124) it was 22.9925; in assay [6] (captured protein PSMB6, Rank 145), 22.7359. For the same compound, the “Average LFQ intensity” value in assay [7] (captured protein SF3A3, Rank 228) was determined as 21.5172; in [8] (captured protein EIF3H;EIF3S3, Rank 114), 23.1902; in assay [9] (captured protein SF3B3, Rank 141), 22.7469.
